Reference: patent publication US12606797B2, “Methods of detection of mechanically-activated platelet activation and uses thereof” (Arizona Board of Regents on Behalf of the University of …, priority 2018, dated 2026)

Tests used:
[1] = test system: human platelets (GFP, PRP); assay: Platelet aggregation induced with biochemical agonists (optical aggregometer); assay type: cell-based; conditions: 1 mM CaCl2, 5 min, 37° C.; for ability to induce platelet aggregation in GFP: gel-filtered platelets, 32 μM TRAP6, 1 U/mL thrombin, 100 μg/mL collagen, 1 mM arachidonic acid
Experimental: Platelet aggregation was assessed in PRP or GFP samples employing dual channel optical aggregometer (Model 560-VS, Chrono-Log Corporation, Havertown, PA). […] Platelet count in aggregation mixture was adjusted to 150-200×10^3 plt/μL (in GFP) and to 300-350×10^3 plt/μL (in PRP), final CaCl2 concentration was 1 mM. Aggregation was started by adding mentioned agonists and running for 5 minutes at 37° C. with 1000 rpm stirring. The changes in relative light transmittance were recorded, and arbitrary values for each aggregation curve were calculated with Aggrolink software (Chrono-Log Corporation, Havertown, PA).
(§1) To define the molecular signature of SMPA, biochemical versus mechanical platelet activation by uniform shear stress applied in the hemodynamic shearing device (HSD) was compared. […] Mechanical platelet activation was obtained via GFP exposure to uniform continuous shear in HSD as described above in “Shear-mediated platelet activation”. Physiologically relevant shear stress levels (30 and 50 dynes/cm^2) close to those found in blood stream vs. sub-pathological shear conditions (70 dynes/cm^2) existing within MCS were examined. Initially, the P-selectin exposure, as a known marker of platelet activation and α-granule secretion, was detected employing mono immunostaining and quantified by flow cytometry. Those cells showing high fluorescence intensity (≥3000 AU) were gated as P-selectin positive platelets and marked as sub-population P6 (FIGS. 2A-2G).

[2] = test system: phosphatidylserine externalization on gel-filtered platelets; assay: Annexin V binding assay of phosphatidylserine externalization (flow cytometry); assay type: cell-based, human; conditions: GFP, 2.5 mM CaCl2; for annexin V binding after platelet stimulation (in words): agonist taken alone
Experimental: (§2) To induce biochemical activation, GFP (2×10^4 platelets/μL, final volume 100 μL) were treated with biochemical agonists mentioned above in presence of 2.5 mM CaCl2), mixed gently and incubated undisturbed for 15 minutes at room temperature. Then APC-conjugated anti-CD62P (clone Psel.KO2.3, eBioscience, San Diego, CA) and FITC-labeled annexin V (eBioscience, San Diego, CA) were added to indicate platelet a-granule secretion and phosphatidylserine externalization (PSE) during platelet biochemical activation. Integrin GP αIIbβ3 activation was evaluated by double-staining technique. […] A pair of antibodies against αIIbβ3 was added simultaneously into a test tube containing activated platelet sample to identify the number of platelets exposing activated αIIbβ3 among all αIIbβ3-expressing platelet population. Cells were incubated with annexin V or antibodies for 30 minutes at room temperature in the dark, washed by centrifugation (5000 rpm, 5 min), resuspended in 1 ml of Ca-free 0.05 M phosphate buffer (pH-7.4) and transferred in polystyrene tube for flow cytometry. Flow cytometry analysis was performed within 15 minutes after sample preparation.
(§3) Flow cytometry was performed on FACS Canto II (BD Biosciences, San Jose, CA) using the following configurations: HeNe red laser (633 nm) and 660/20 filter—for APC, solid state blue laser (488 nm) and 530/30 filter—for FITC-stained cell detection. Single platelets were distinguished from their aggregates and microparticles based on their characteristic forward versus side scatter. […] BD FACSDiva™ software was applied to analyze flow cytometry data statistics (percentage of marker-positive platelets among whole platelet population and their median fluorescence intensity).
To detect phosphatidylserine exposure, an annexin V binding assay is extensively utilized. The principle of the assay is based on the high affinity binding of protein annexin V labeled with fluorescence dye to phosphatidylserine on platelet surface with the aid of Ca2+ ions (Demchenko, Cytotechnology, vol. 65, no. 2, pp. 157-72, March (2013)).

[3] = test system: procoagulant activity of gel-filtered platelets; assay: Prothrombinase-based Platelet Activation State (PAS) assay, thrombin generation on platelet surface; assay type: cell-based, human; conditions: platelets 5×10^3 cells/μL, 200 nM acetylated prothrombin, 100 pM factor Xa, 37° C., 10 minutes
Excerpt: PAS was quantified by chemically modified prothrombinase-based chromogenic assay developed by Jesty and Bluestein (Jesty & Bluestein, Anal. Biochem. (1999), Jesty et al., Platelets, vol. 14, no. 3, pp. 143-149, 2003). The assay measures the rate of acetylated thrombin generation from acetylated proenzyme cleavage by factor Xa in presence of activated platelets. […] Activated, but not resting, platelets present factor Va and negatively charged phospholipids (mostly phosphatidylserine) on their surface for prothrombinase complex formation and thrombin generation. Thus, the rate of enzymatic cleavage of chromogenic substrate Chromozym TH (Tosyl-Gly-Pro-Arg-4-nitranilide acetate, Roche Diagnostics GmbH, Mannheim, Germany) by acetylated thrombin reflects the value of initial activation state of the platelets tested (Jesty & Bluestein, Anal. Biochem. (1999), Rubenstein et al., Circulation, (2004)).
Platelet samples preliminary stimulated with biochemical activators, shear or sonication (platelet count—5×10^3 cells/μL) were incubated with 200 nM acetylated prothrombin, 100 pM factor Xa (Enzyme Research Laboratories, South Bend, IN), 5 mM CaCl2) in a volume of 100 μL 20 mM HEPES, pH 7.4, containing 130 mM NaCl and 0.1% BSA at 37° C. for 10 minutes. Then, 10 μL of each timed sample was measured for thrombin activity in microplate wells, containing 0.3 mM Cromozyme TH, 3 mM EDTA in 20 mM HEPES, pH 7.4, containing 130 mM NaCl and 0.1% BSA. Kinetic change of absorbance (λ=405 nm) was measured for 7 minutes at room temperature using microplate reader Versa MAX (Molecular Devices Corp., Sunnyvale, CA). The value of PAS or initial rate of thrombin generation was calculated as a slope of kinetic curve (ΔA405/min) with SoftMax Pro6 Software.

[4] = test system: integrin GPIIb/IIIa activation on gel-filtered platelets; assay: Flow cytometry of integrin GPIIb/IIIa activation (anti-CD41/CD61-FITC PAC-1 and anti-CD41-APC double staining); assay type: cell-based, human; conditions: for number of platelets presenting activated GPIIb/IIIa (CD41/CD61-positive among CD41-positive) / elevation of number of platelets presenting activated GPIIb/IIIa as compared with intact platelets: GFP, 10 uM ADP, 1 U/mL thrombin; for number of platelets presenting activated GPIIb/IIIa (CD41/CD61-positive among CD41-positive): 2.5 mM CaCl2, gate ≥4000 AU, intact platelets 6.7±2.9%; for number of CD41/CD61-positive platelets following GFP stimulation (in words): 2.5 mM CaCl2, vs intact platelets
Experimental: as §2, §3
To assess the magnitude of integrin GPIIb/IIIa activation after platelet stimulation with constant shear or biochemical agonists, the number of whole GPIIb/IIIa-positive platelet population was compared with the number of those presenting activated form of the integrin on their membrane. For this purpose, double staining with APC-conjugated anti-CD41 and FITC-conjugated anti-CD41/CD61 was applied as describe in the methods described above. Among parental CD41-positive platelet population, CD41/CD61-positive cells were distinguished based on their FITC-fluorescence intensity level (≥4000 AU) and assumed as presenting activated form of integrin GPIIb/IIIa on their surface (FIGS. 4A-4G, sub-population P3).

[5] = test system: P-selectin exposure on gel-filtered platelets; assay: Flow cytometry of platelet P-selectin exposure (anti-CD62P-APC) after biochemical activation; assay type: cell-based, human; conditions: 2.5 mM CaCl2, room temperature; for number of CD62P-positive cells, % of whole platelet population: GFP 2×10^4 platelets/μL, 10 uM ADP, 10 μg/mL epinephrine, 1 mM arachidonic acid, gate ≥3000 AU; for P-selectin exposure (in words): GFP, 32 μM TRAP6, 1 U/mL thrombin, 100 μg/mL collagen
Experimental: as §2, §3, §1

human platelets = conditions: not sensitive to cyclooxygenase inhibitors; cited from earlier work

For `Nc1ncnc2c1ncn2[C@@H]1O[C@H](COP(=O)(O)OP(=O)(O)O)[C@@H](O)[C@H]1O` [ADP, Adenosine DiPhosphate], the “ability to induce platelet aggregation in PRP” value ([1]; platelet-rich plasma, 10 uM ADP, 10 μg/mL epinephrine) was “induce platelet aggregation”, the “annexin V binding after platelet stimulation (in words)” value (from here on “annexin V binding”) [2] was “No annexin V binding” and the “thrombin generation / amidolytic activity in presence of stimulated platelets (PAS assay, in words)” value [3] was “no amidolytic activity was detected”. For the same compound, the “number of platelets presenting activated GPIIb/IIIa (CD41/CD61-positive among CD41-positive)” value [4] was 28.0±8.9%, the “elevation of number of platelets presenting activated GPIIb/IIIa as compared with intact platelets” value [4] was 4.2 times and the “number of CD62P-positive cells, % of whole platelet population” value [5] was 46.8±3.9%.
In the case of `CCCCC/C=C\C/C=C\C/C=C\C/C=C\CCCC(=O)O` [arachidonic acid], the “ability to induce platelet aggregation in GFP” value (“ability … in GFP” below) [1] was “induce platelet aggregation”, the “number of annexin V-positive platelets, % of whole platelet population” value ([2]; arachidonic acid 1 mM) was 52.12±6.79% and the “thrombin generation / amidolytic activity in presence of stimulated platelets (PAS assay, in words)” value [3] was “comparable with sonicated GFP sample”. The “number of CD41/CD61-positive platelets following GFP stimulation (in words)” value (“number … (in words)” below) [4] was “not significantly elevated”, the “AA concentration required for Ca^2+ influx” value (human platelets) was 60 µM and the “number of CD62P-positive cells, % of whole platelet population” value [5] was 52.1±6.8%.
With `CNC[C@H](O)c1ccc(O)c(O)c1` [epinephrine] the “annexin V binding” value [2] was “No annexin V binding”, the “thrombin generation / amidolytic activity in presence of stimulated platelets (PAS assay, in words)” value [3] was “no amidolytic activity was detected” and the “number … (in words)” value [4] was “not significantly elevated”. For the same compound, the “number of CD62P-positive cells, % of whole platelet population” value [5] was 18.6±1.5%.
For collagen, the “ability … in GFP” value [1] was “induce platelet aggregation”, the “annexin V binding” value [2] was “No annexin V binding” and the “thrombin generation / amidolytic activity in presence of stimulated platelets (PAS assay, in words)” value [3] was “no amidolytic activity was detected”. The “number … (in words)” value [4] was “not significantly elevated” and the “P-selectin exposure (in words)” value [5] was “failed to induce high P-selectin exposure”.
With thrombin the “ability … in GFP” value [1] was “induce platelet aggregation”, the “annexin V binding” value [2] was “No annexin V binding” and the “number of platelets presenting activated GPIIb/IIIa (CD41/CD61-positive among CD41-positive)” value [4] was 63.5±10.2%. The “elevation of number of platelets presenting activated GPIIb/IIIa as compared with intact platelets” value [4] was 9.6 times and the “P-selectin exposure (in words)” value [5] was “dramatic augmentation of P-selectin exposure”.
In the case of “thrombin receptor activating peptide-6 [TRAP-6]”, the “ability … in GFP” value [1] was “induce platelet aggregation”, the “annexin V binding” value [2] was “No annexin V binding” and the “thrombin generation / amidolytic activity in presence of stimulated platelets (PAS assay, in words)” value [3] was “no amidolytic activity was detected”. The “number … (in words)” value [4] was “not significantly elevated” and the “P-selectin exposure (in words)” value [5] was “dramatic augmentation of P-selectin exposure”.
